Data set [1] deals with Chinese hamster lung (CHL/IU) cells. The data set can be described thus: Effect of inducing chromosomal aberration. The class given is cell-based. Conditions: for Percentile induction of structural aberration (TA %): 24 hours, CHL/IU cells; for Significant increase in number of the cells exhibiting chromosomal aberration: at a concentration of up to 100 μg/mL. As to the method: From each sample solution, samples to be tested having a concentration of 1, 3, 10, 30, 50, and 100 μg/mL (as reduced to free form) were prepared. As a negative control, 0.1 mol/L NaOH was employed.
Chinese hamster lung (CHL/IU) cells in logarithmic growth phase were employed. The cells were treated in a culture solution containing each sample to be tested for 24 hours. Subsequently, a chromosome specimen was prepared from the thus-treated cells. The culture solution employed was an Eagle's MEM (product of NISSUI PHARMACEUTICAL CO., LTD.) medium containing 15% fetal bovine serum (15% FBS-MEM).
In each sample concentration, 100 cells during metaphase were observed, to thereby record types and numbers of the chromosomal aberration.

In a further data set the test system is S. flexneri 2A 5503. Description: Antibacterial activity (MIC), standard method of the Japan Society of Chemotherapy. In kind it is cell-based. The settings on record: Shigella flexneri, 2A5503, read-out: MIC. How it is done: (§1) The antimicrobial activities of the compounds of the present invention were determined according to a standard method designated by the Japan Society of Chemotherapy. The results are expressed by MIC (μg/mL) (Table 1). In Table 1, S. aureus 870307 and S. pneumonia J24 are quinolone-resistant bacteria.

Another data set has as its system P. Vulgalis 08601. Described as above. In kind it is cell-based. How it is done:
as §1

The subject of another data set is S. pyogenes G-36. Described as above. In kind it is cell-based. Conditions: Streptococcus pyogenes, G36. How it is done:
as §1

Another data set has as its system S. epidermidis 56500. Described as above. The class given is cell-based. Conditions: Staphylococcus epidermidis. As to the method:
as §1

For a further data set, the system named is K. pneumoniae TYPE I. Described as above. The class given is cell-based. Conditions: Klebsiella pneumoniae. As to the method: as §1
A further data set deals with P. aeruginosa 32121. The data set is described as above. The class given is cell-based. The settings on record: Pseudomonas aeruginosa. As to the method:
as §1

For the next data set, the system named is P. aeruginosa 32104. Described as above. In kind it is cell-based. The settings on record: Pseudomonas aeruginosa. As to the method: as §1
A further data set deals with S. marcescens 10100. The data set is described as above. In kind it is cell-based. The settings on record: Serratia marcescens. How it is done: as §1
The next data set relates to S. maltophilia IID 1275. Described as above. The class given is cell-based. The settings on record: Stenotrophomonas maltophilia, IID1275. How it is done: as §1
Another data set concerns S. pneumoniae J24. Described as above. The class given is cell-based. Conditions: Streptococcus pneumoniae. How it is done: as §1
Another data set deals with E. faevcalis ATCC 19433. Described as above. In kind it is cell-based. How it is done:
as §1

The test system of a further data set is S. aureus FDA 209P. The data set is described as above. In kind it is cell-based. The settings on record: Staphylococcus aureus, FDA209P. How it is done: as §1
A further data set relates to E. coli NIHJ. The description is as above. The class given is cell-based. Conditions: Escherichia coli. As to the method:
as §1

Another data set concerns S. aureus 870307. The description is as above. In kind it is cell-based. The settings on record: Staphylococcus aureus. How it is done:
as §1

For the next data set, the system named is Slc:ddY male mice. The data set can be described thus: Effect of inducing convulsion, intracisternal administration to mice. In kind it is in vivo. Conditions: i.cist., Probit method. As to the method: The compounds (Compound Nos. 1, 2, and 3) of the present invention and Comparative Compounds A and B were individually dissolved in 5% glucose, to thereby prepare several samples to be tested. Groups of six-week-old Slc:ddY male mice (body weight: 23.9 to 27.4 g), each group consisting of 6 mice, were employed in the test. Each of the above-prepared samples was administered intracisternally to each mouse belonging to each group at concentrations shown in Tables 2 and 3 (5 μL/mouse). During 30 minutes after administration, it was observed whether each mouse suffered convulsion or died in an individual cage. Administration was performed according to the method described by Ueda, et al. (Reference 1).
Reference 1: Ueda H, Amano H, Shiomi H, Takagi H: Comparison of the analgesic effects of various opioid peptides by a newly devised intracisternal injection technique in conscious mice. Eur J Pharmacol. 1979; 56: 265-8.
Significant difference test between groups was performed in terms of incidence of convulsion according to the Fisher's direct probability calculation method (one-sided test, level of significance: P<0.05). On the basis of percentile incidence of convulsion, CD50 (50% concentration for inducing convulsion) and 95% confidence limit were calculated by the Probit method.

Where [2] appears, read: P. Vulgalis 08601, read-out: MIC.
Setting [3] is: S. pyogenes G-36, read-out: MIC.
The mark [4] stands for this setting: S. epidermidis 56500, read-out: MIC.
[5] abbreviates: K. pneumoniae TYPE I, read-out: MIC.
The mark [6] stands for this setting: P. aeruginosa 32121, read-out: MIC.
Setting [7] is: P. aeruginosa 32104, read-out: MIC.
[8] abbreviates: S. marcescens 10100, read-out: MIC.
Where [9] appears, read: S. maltophilia IID 1275, read-out: MIC.
Where [10] appears, read: S. pneumoniae J24, quinolone-resistant, read-out: MIC.
The mark [11] stands for this setting: E. faevcalis ATCC 19433, read-out: MIC.
[12] abbreviates: S. aureus FDA 209P, read-out: MIC.
Setting [13] is: S. aureus 870307, quinolone-resistant, read-out: MIC.

Three compounds from patent publication US7977327B2, “Substituted pyrrolidine derivative” (Daiichi Sankyo Company, Limited, priority 2004, dated 2011) can be followed below.

≈ marks a conversion by molar mass, not a printed value. Where a name gives a salt, the structure may show the parent alone. Read-outs that look alike come from different tables or passages of the source. Marks after values point to notes of the source that are not given here.

Usually MIC stands for the lowest concentration that inhibits growth of the organism. For the compound `CC[C@H]1CN(c2c(F)cc3c(=O)c(C(=O)O)cn([C@@H]4C[C@@H]4F)c3c2OC)C[C@H]1N` [Compound No. 1, 7-[(3S,4S)-3-Amino-4-ethylpyrrolidin-1-yl]-6-fluoro-1-[(1R,2S)-2-fluorocyclopropyl]-8-methoxy-1,4-dihydro-4-oxoquinoline-3-carboxylic acid], the “Percentile induction of structural aberration (TA %)” value is on record as 0% in [1] (1 μg/mL); 1% in data set [1] (3 μg/mL); 2% in [1] (10 μg/mL); 3% in data set [1] (30 μg/mL); 2% in [1] (50 μg/mL); 7% in data set [1] (100 μg/mL). Moreover, the “Significant increase in number of the cells exhibiting chromosomal aberration” value in data set [1] is recorded as “not observed”. The MIC with S. flexneri 2A 5503 stood at 0.006 µg/mL (≈ 0.0147 µM); in the data set on P. Vulgalis 08601 (setting [2]), 0.012 µg/mL (≈ 0.0295 µM); with S. pyogenes G-36 (setting [3]) it was 0.05 µg/mL (≈ 0.123 µM); in the data set on S. epidermidis 56500 (setting [4]) it was 0.05 µg/mL (≈ 0.123 µM); with K. pneumoniae TYPE I (setting [5]) it was 0.025 µg/mL (≈ 0.0614 µM); in the data set with P. aeruginosa 32121 (setting [6]), 0.1 µg/mL (≈ 0.245 µM). Further, the minimal inhibitory concentration (MIC) in the data set with P. aeruginosa 32104 (setting [7]) came to 0.2 µg/mL (≈ 0.491 µM); in the data set with S. marcescens 10100 (setting [8]), 0.1 µg/mL (≈ 0.245 µM); with S. maltophilia IID 1275 (setting [9]), 0.05 µg/mL (≈ 0.123 µM); with S. pneumoniae J24 (setting [10]) it was 0.025 µg/mL (≈ 0.0614 µM); in the data set with E. faevcalis ATCC 19433 (setting [11]), 0.1 µg/mL (≈ 0.245 µM); in the data set on S. aureus FDA 209P (setting [12]), 0.006 µg/mL (≈ 0.0147 µM). Further, the MIC with E. coli NIHJ (E. coli NIHJ, read-out: MIC) is 0.006 µg/mL (≈ 0.0147 µM); in the data set with S. aureus 870307 (setting [13]), 0.2 µg/mL (≈ 0.491 µM). For the same compound, the “CD50 (50% concentration for inducing convulsion), with 95% confidence limit” value (“CD50 … with 95% confidence limit” for short) with Slc:ddY male mice is reported as 49.2^b) μg/5 μL/mouse.
For `CC[C@H]1CN(c2c(F)cc3c(=O)c(C(=O)O)cn4c3c2OC[C@@H]4C)C[C@H]1N` [Compound No. 3, (3S)-10-[(3S,4S)-3-Amino-4-ethylpyrrolidin-1-yl]-9-fluoro-2,3-dihydro-3-methyl-7-oxo-7H-pyrido[1,2,3-de][1,4]benzoxazine-6-carboxylic acid], the “Percentile induction of structural aberration (TA %)” value was 3% in data set [1] (1 μg/mL); 0% in data set [1] (3 μg/mL); 2% in data set [1] (10 μg/mL); 1% in data set [1] (30 μg/mL); 5% in data set [1] (50 μg/mL); 9% in data set [1] (100 μg/mL). In [1], the “Significant increase in number of the cells exhibiting chromosomal aberration” value is “not observed”. Moreover, the minimum inhibitory concentration (MIC) came out at 0.006 µg/mL (≈ 0.016 µM) in the data set on S. flexneri 2A 5503; 0.006 µg/mL (≈ 0.016 µM) in the data set on P. Vulgalis 08601 (setting [2]); 0.1 µg/mL (≈ 0.266 µM) in the data set on S. pyogenes G-36 (setting [3]); 0.05 µg/mL (≈ 0.133 µM) in the data set on S. epidermidis 56500 (setting [4]); 0.05 µg/mL (≈ 0.133 µM) in the data set on K. pneumoniae TYPE I (setting [5]); 0.05 µg/mL (≈ 0.133 µM) in the data set on P. aeruginosa 32121 (setting [6]). Further, the minimum inhibitory concentration (MIC) in the data set on P. aeruginosa 32104 (setting [7]) is 0.1 µg/mL (≈ 0.266 µM); with S. marcescens 10100 (setting [8]) it was 0.025 µg/mL (≈ 0.0666 µM); with S. maltophilia IID 1275 (setting [9]), 0.2 µg/mL (≈ 0.533 µM); in the data set on S. pneumoniae J24 (setting [10]), 0.1 µg/mL (≈ 0.266 µM); in the data set on E. faevcalis ATCC 19433 (setting [11]), 0.1 µg/mL (≈ 0.266 µM); with S. aureus FDA 209P (setting [12]), 0.012 µg/mL (≈ 0.032 µM). Moreover, the MIC worked out at 0.006 µg/mL (≈ 0.016 µM) in the data set on E. coli NIHJ (E. coli NIHJ, read-out: MIC) and 0.78 µg/mL (≈ 2.08 µM) with S. aureus 870307 (setting [13]). Also, the “CD50 … with 95% confidence limit” value in the data set with Slc:ddY male mice is 64.5 (47.7-80.8) μg/5 μL/mouse.
With `COc1c(N2C[C@@H](N)[C@@H](C)C2)c(F)cc2c(=O)c(C(=O)O)cn([C@@H]3C[C@@H]3F)c12` [Comparative Compound A, 7-[(3S,4S)-3-Amino-4-methylpyrrolidin-1-yl]-6-fluoro-1-[(1R,2S)-2-fluorocyclopropyl]-1,4-dihydro-8-methoxy-4-oxoquinoline-3-carboxylic acid-hydrochloride, reference compound], the minimal inhibitory concentration (MIC) in the data set with S. flexneri 2A 5503 came to 0.006 µg/mL; against P. Vulgalis 08601, 0.006 µg/mL; against S. pyogenes G-36 it was 0.05 µg/mL; against S. epidermidis 56500 (56500), 0.05 µg/mL; in the data set on K. pneumoniae TYPE I, 0.05 µg/mL; in the data set with P. aeruginosa 32121 (32121), 0.05 µg/mL. Moreover, the MIC was found to be 0.1 µg/mL in the data set with P. aeruginosa 32104 (32104); 0.05 µg/mL in the data set on S. marcescens 10100 (10100); 0.1 µg/mL in the data set on S. maltophilia IID 1275; 0.025 µg/mL against S. pneumoniae J24 (J24); 0.1 µg/mL in the data set on E. faevcalis ATCC 19433; 0.012 µg/mL in the data set with S. aureus FDA 209P. For the same compound, the minimal inhibitory concentration (MIC) against E. coli NIHJ is 0.006 µg/mL; in the data set on S. aureus 870307 (870307), 0.39 µg/mL. Further, the “CD50 … with 95% confidence limit” value in the data set on Slc:ddY male mice is recorded as 12.7 (7.7-24.9)^a) μg/5 μL/mouse.
